We go through 16 compounds from patent US9499550B2 (BRISTOL-MYERS SQUIBB COMPANY, priority 2012, dated 2016).

Where two headings read alike, the source gives them in different places. Bounds are passed on as bounds.

The subject of assay [1] is HCV genotype 1b (Con1) replicon in HUH-7 cells. Kind of assay: HCV replicon luciferase reporter assay, genotype 1b. The assay is classed as cell-based. The note with it: Hepatitis C virus, Huh-7, 72 h, HCV genotype 1b replicon luciferase, 3 days incubation. A digest of the protocol:
(§1)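 Replicon inhibition for both genotypes was measured as Renilla luciferase signal (EnduRen, 7.5 μM final, 2 h) after 3-day, 37° C exposure of replicon-bearing HUH-7 cells in 4% FCS DMEM, 0.5% DMSO. The 1b construct carries S1179I; the 1a H77 construct carries P1496L and S2204I. Twenty-point, 3-fold dilutions were fitted four-parametrically for EC50, and CC50 was taken from multiplexed Cell Titer-Blue.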

Assay [2] concerns HCV genotype 1a (H77 strain) replicon in HUH-7 cells. Kind of assay: HCV replicon luciferase reporter assay, genotype 1a. The note with it: Hepatitis C virus, Huh-7, 72 h, HCV genotype 1a replicon luciferase, 3 days incubation. The class given is cell-based. The gist of the method:
as §1
(In general: In antiviral work, replicon cells carry a viral genome segment that copies itself.)

With `CC[C@@H]1C[C@H](C)CC/C=C\[C@@H]2C[C@@]2(C(=O)NS(=O)(=O)C2(C)CC2)NC(=O)[C@@H]2C[C@@H](Oc3nnc(OC)c4ccccc34)CN2C(=O)[C@H]1NC(=O)OC(C)(C)C(F)(F)F` [Compound 5018, 1,1,1-trifluoro-2-methylpropan-2-yl((2R,6S,7R,9R,13aS,14aR,16aS,Z)-7-ethyl-2-((4-methoxyphthalazin-1-yl)oxy)-9-methyl-14a-(((1-methylcyclopropyl)sulfonyl)carbamoyl)-5,16-dioxo-1,2,3,5,6,7,8,9,10,11,13a,14,14a,15,16,16a-hexadecahydrocyclopropa[e]pyrrolo[1,2-a][1,4]diazacyclopentadecin-6-yl)carbamate], the 50% effective concentration (EC50) in assay [1] (read-out: LE_1b (EC50, range)) is under 5.46 nM; in assay [2] (read-out: LE_1a (EC50, range)), under 5.46 nM.

As to `[2H]C([2H])([2H])C(OC(=O)N[C@@H]1C(=O)N2C[C@H](Oc3nnc(OC)c4ccccc34)C[C@H]2C(=O)N[C@]2(C(=O)NS(=O)(=O)C3(C)CC3)C[C@H]2/C=C\CC[C@H](C)C[C@H]1CC)(C([2H])([2H])[2H])C(F)(F)F` [Compound 5019], the concentration giving a half-maximal response (EC50) in assay [1] (read-out: LE_1b (EC50)) is 3.65 nM; in assay [1] (read-out: LE_1b (EC50, range)), under 5.46 nM; in assay [2] (read-out: LE_1a (EC50)), 7.27 nM; in assay [2] (read-out: LE_1a (EC50, range)), 4.82 to 103 nM.

Consider `[2H]C([2H])([2H])C(OC(=O)N[C@@H]1C(=O)N2C[C@H](Oc3nnc(OC)c4ccccc34)C[C@H]2C(=O)N[C@]2(C(=O)NS(=O)(=O)C3(C)CC3)C[C@H]2/C=C\CC[C@@H](C)C[C@H]1CC)(C([2H])([2H])[2H])C(F)(F)F` [Compound 5020], for which the concentration for a half-maximal effect (EC50) in assay [1] (read-out: LE_1b (EC50, range)) is under 5.46 nM; in assay [2] (read-out: LE_1a (EC50, range)), under 5.46 nM.

For `[2H]C([2H])([2H])C(C)(OC(=O)N[C@@H]1C(=O)N2C[C@H](Oc3nnc(OC)c4ccccc34)C[C@H]2C(=O)N[C@]2(C(=O)NS(=O)(=O)C3(C)CC3)C[C@H]2/C=C\CC[C@H](C)C[C@H]1CC)C([2H])([2H])[2H]` [Compound 5021], the concentration giving a half-maximal response (EC50) in assay [1] (read-out: LE_1b (EC50, range)) is under 5.46 nM; in assay [2] (read-out: LE_1a (EC50, range)) it was 4.82 to 103 nM.

In the case of `[2H]C([2H])([2H])C(C)(OC(=O)N[C@@H]1C(=O)N2C[C@H](Oc3nnc(OC)c4ccccc34)C[C@H]2C(=O)N[C@]2(C(=O)NS(=O)(=O)C3(C)CC3)C[C@H]2/C=C\CC[C@@H](C)C[C@H]1CC)C([2H])([2H])[2H]` [Compound 5022], the EC50 in assay [1] (read-out: LE_1b (EC50, range)) is under 5.46 nM; in assay [2] (read-out: LE_1a (EC50, range)), under 5.46 nM.

With `CC[C@@H]1C[C@@H](C)CC/C=C\[C@@H]2C[C@@]2(C(=O)NS(=O)(=O)C2(C)CC2)NC(=O)[C@@H]2C[C@@H](Oc3nnc(OC)c4ccccc34)CN2C(=O)[C@H]1NC(=O)NC(C)(C)C` [Compound 5023, (2R,6S,7R,9S,13aS,14aR,16aS,Z)-6-(3-(tert-butyl)ureido)-7-ethyl-2-((4-methoxyphthalazin-1-yl)oxy)-9-methyl-N-((1-methylcyclopropyl)sulfonyl)-5,16-dioxo-1,2,3,5,6,7,8,9,10,11,13a,14,14a,15,16,16a-hexadecahydrocyclopropa[e]pyrrolo[1,2-a][1,4]diazacyclopentadecine-14a-carboxamide], the concentration giving a half-maximal response (EC50) in assay [1] (read-out: LE_1b (EC50)) is 24.6 nM; in assay [1] (read-out: LE_1b (EC50, range)), 4.82 to 103 nM; in assay [2] (read-out: LE_1a (EC50)), 16 nM; in assay [2] (read-out: LE_1a (EC50, range)) it was 4.82 to 103 nM.

In the case of `CC[C@@H]1C[C@H](C)CC/C=C\[C@@H]2C[C@@]2(C(=O)NS(=O)(=O)C2(C)CC2)NC(=O)[C@@H]2C[C@@H](Oc3nnc(OC)c4ccccc34)CN2C(=O)[C@H]1NC(=O)NC(C)(C)C` [Compound 5024, (2R,6S,7R,9R,13aS,14aR,16aS,Z)-6-(3-(tert-butyl)ureido)-7-ethyl-2-((4-methoxyphthalazin-1-yl)oxy)-9-methyl-N-((1-methylcyclopropyl)sulfonyl)-5,16-dioxo-1,2,3,5,6,7,8,9,10,11,13a,14,14a,15,16,16a-hexadecahydrocyclopropa[e]pyrrolo[1,2-a][1,4]diazacyclopentadecine-14a-carboxamide], the concentration for a half-maximal effect (EC50) in assay [1] (read-out: LE_1b (EC50, range)) was under 5.46 nM; in assay [2] (read-out: LE_1a (EC50, range)) it was under 5.46 nM.

Consider `CC[C@@H]1C[C@@H](C)CC/C=C\[C@@H]2C[C@@]2(C(=O)NS(=O)(=O)C2(C)CC2)NC(=O)[C@@H]2C[C@@H](Oc3nnc(OC)c4ccccc34)CN2C(=O)[C@H]1NC(=O)OC(C)(C)C` [Compound 5025, tert-butyl ((2R,6S,7R,9S,13aS,14aR,16aS,Z)-7-ethyl-2-((4-methoxyphthalazin-1-yl)oxy)-9-methyl-14a-(((1-methylcyclopropyl)sulfonyl)carbamoyl)-5,16-dioxo-1,2,3,5,6,7,8,9,10,11,13a,14,14a,15,16,16a-hexadecahydrocyclopropa[e]pyrrolo[1,2-a][1,4]diazacyclopentadecin-6-yl)carbamate], for which the 50% effective concentration (EC50) in assay [1] (read-out: LE_1b (EC50, range)) was under 5.46 nM; in assay [2] (read-out: LE_1a (EC50, range)) it was 4.82 to 103 nM.

Turning to `CC[C@@H]1C[C@H](C)CC/C=C\[C@@H]2C[C@@]2(C(=O)NS(=O)(=O)C2(C)CC2)NC(=O)[C@@H]2C[C@@H](Oc3nnc(OC)c4ccccc34)CN2C(=O)[C@H]1NC(=O)OC(C)(C)C` [Compound 5026, tert-butyl ((2R,6S,7R,9R,13aS,14aR,16aS,Z)-7-ethyl-2-((4-methoxyphthalazin-1-yl)oxy)-9-methyl-14a-(((1-methylcyclopropyl)sulfonyl)carbamoyl)-5,16-dioxo-1,2,3,5,6,7,8,9,10,11,13a,14,14a,15,16,16a-hexadecahydrocyclopropa[e]pyrrolo[1,2-a][1,4]diazacyclopentadecin-6-yl)carbamate], the concentration giving a half-maximal response (EC50) in assay [1] (read-out: LE_1b (EC50, range)) was under 5.46 nM; in assay [2] (read-out: LE_1a (EC50, range)) it was under 5.46 nM.

Take `COc1nnc(O[C@@H]2C[C@H]3C(=O)N[C@]4(C(=O)NS(=O)(=O)C5(CF)CC5)C[C@H]4/C=C\CC[C@@H](C)C[C@@H](C)[C@H](NC(=O)OC(C)(C)C(F)(F)F)C(=O)N3C2)c2ccccc12` [Compound 5027]: the half-maximal effective concentration (EC50) was under 5.46 nM in assay [1] (GETYPE1B, read-out: LE_1b (EC50, range)) and under 5.46 nM in assay [2] (GETYPE1A, read-out: LE_1a (EC50, range)).

For the compound `CCOc1nnc(O[C@@H]2C[C@H]3C(=O)N[C@]4(C(=O)NS(=O)(=O)C5(C)CC5)C[C@H]4/C=C\CC[C@H](C)C[C@@H](C)[C@H](NC(=O)OC(C)(C)C)C(=O)N3C2)c2ccccc12` [Compound 5028, tert-butyl ((2R,6S,7R,9S,13aS,14aR,16aS,Z)-2-((4-ethoxyphthalazine-1-yl)oxy)-7,9-dimethyl-14a-(((1-methylcyclopropyl)sulfonyl)carbamoyl)-5,16-dioxo-1,2,3,5,6,7,8,9,10,11,13a,14,14a,15,16,16a-hexadecahydrocyclopropa[e]pyrrolo[1,2-a][1,4]diazacyclopentadecin-6-yl)carbamate], the half-maximal effective concentration (EC50) in assay [1] (read-out: LE_1b (EC50)) was 2.96 nM; in assay [1] (read-out: LE_1b (EC50, range)), under 5.46 nM; in assay [2] (read-out: LE_1a (EC50)), 6.28 nM; in assay [2] (read-out: LE_1a (EC50, range)) it was 4.82 to 103 nM.

Regarding `CCOc1nnc(O[C@@H]2C[C@H]3C(=O)N[C@]4(C(=O)NS(=O)(=O)C5(C)CC5)C[C@H]4/C=C\CC[C@@H](C)C[C@@H](C)[C@H](NC(=O)OC(C)(C)C)C(=O)N3C2)c2ccccc12` [Compound 5029, tert-butyl ((2R,6S,7R,9R,13aS,14aR,16aS,Z)-2-((4-ethoxyphthalazin-1-yl)oxy)-7,9-dimethyl-14a-(((1-methylcyclopropyl)sulfonyl)carbamoyl)-5,16-dioxo-1,2,3,5,6,7,8,9,10,11,13a,14,14a,15,16,16a-hexadecahydrocyclopropa[e]pyrrolo[1,2-a][1,4]diazacyclopentadecin-6-yl)carbamate], the EC50 was under 5.46 nM in assay [1] (read-out: LE_1b (EC50, range)) and under 5.46 nM in assay [2] (read-out: LE_1a (EC50, range)).

Turning to `CCOc1nnc(O[C@@H]2C[C@H]3C(=O)N[C@]4(C(=O)NS(=O)(=O)C5(C)CC5)C[C@H]4/C=C\CC[C@H](C)C[C@@H](C)[C@H](NC(=O)OC(C)(C)C(F)(F)F)C(=O)N3C2)c2ccccc12` [Compound 5030, 1,1,1-trifluoro-2-methylpropan-2-yl((2R,6S,7R,9S,13aS,14aR,16aS,Z)-2-((4-ethoxyphthalazin-1-yl)oxy)-7,9-dimethyl-14a-(((1-methylcyclopropyl)sulfonyl)carbamoyl)-5,16-dioxo-1,2,3,5,6,7,8,9,10,11,13a,14,14a,15,16,16a-hexadecahydrocyclopropa[e]pyrrolo[1,2-a][1,4]diazacyclopentadecin-6-yl)carbamate], the EC50 in assay [1] (read-out: LE_1b (EC50, range)) is 4.82 to 103 nM; in assay [2] (read-out: LE_1a (EC50, range)), 4.82 to 103 nM.

With `CCOc1nnc(O[C@@H]2C[C@H]3C(=O)N[C@]4(C(=O)NS(=O)(=O)C5(C)CC5)C[C@H]4/C=C\CC[C@@H](C)C[C@@H](C)[C@H](NC(=O)OC(C)(C)C(F)(F)F)C(=O)N3C2)c2ccccc12` [Compound 5031, 1,1,1-trifluoro-2-methylpropan-2-yl((2R,6S,7R,9R,13aS,14aR,16aS,Z)-2-((4-ethoxyphthalazin-1-yl)oxy)-7,9-dimethyl-14a-(((1-methylcyclopropyl)sulfonyl)carbamoyl)-5,16-dioxo-1,2,3,5,6,7,8,9,10,11,13a,14,14a,15,16,16a-hexadecahydrocyclopropa[e]pyrrolo[1,2-a][1,4]diazacyclopentadecin-6-yl)carbamate], the EC50 in assay [1] (read-out: LE_1b (EC50, range)) was under 5.46 nM; in assay [2] (read-out: LE_1a (EC50, range)), under 5.46 nM.

For `[2H]C([2H])([2H])C(OC(=O)N[C@@H]1C(=O)N2C[C@H](Oc3nnc(OCC)c4ccccc34)C[C@H]2C(=O)N[C@]2(C(=O)NS(=O)(=O)C3(C)CC3)C[C@H]2/C=C\CC[C@H](C)C[C@H]1C)(C([2H])([2H])[2H])C(F)(F)F` [Compound 5032], the 50% effective concentration (EC50) fell in the range of 4.82 to 103 nM in assay [1] (read-out: LE_1b (EC50, range)) and 4.82 to 103 nM in assay [2] (read-out: LE_1a (EC50, range)).

Take `[2H]C([2H])([2H])C(OC(=O)N[C@@H]1C(=O)N2C[C@H](Oc3nnc(OCC)c4ccccc34)C[C@H]2C(=O)N[C@]2(C(=O)NS(=O)(=O)C3(C)CC3)C[C@H]2/C=C\CC[C@@H](C)C[C@H]1C)(C([2H])([2H])[2H])C(F)(F)F` [Compound 5033]: the 50% effective concentration (EC50) in assay [1] (read-out: LE_1b (EC50, range)) is under 5.46 nM; in assay [2] (read-out: LE_1a (EC50, range)) it was under 5.46 nM.

The term EC50 denotes the concentration giving half of the maximal effect.
